Assay results as given in ChEMBL document CHEMBL4017467, “Generation of tricyclic imidazo[1,2-a]pyrazines as novel PI3K inhibitors by application of a conformational restriction strategy” (Bioorg Med Chem Lett, 2017).

Experiments:
in vitro [1] = conditions: human, liver microsomes
in vitro [2] = conditions: rat, liver microsomes

`CS(=O)(=O)N1CCN(Cc2cn3cc(-c4cnc(N)nc4)nc(N4CCOCC4)c3n2)CC1` showed a remaining at 0.25 h, 1 µM (in vitro [1]) of 93% and a remaining at 0.25 h, 1 µM (in vitro [2]) of 99%.
